Measured values taken from PubChem BioAssay (NCI).
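Values below derive from 48-hour exposures of cells grown in 96-well plates, with endpoints linearly interpolated between the two concentrations bracketing the appropriate inhibition level. Abbreviation: GI50, concentration required for 50% inhibition of growth. TGI denotes the concentration required for complete inhibition of growth.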

Tests used:
Experiment in all cases: growth of human tumour cells (NCI), 48 h
HL-60(TB) leukemia = system: HL-60(TB) leukemia
HOP-92 NSCLC = system: HOP-92 NSCLC
KM12 colon = system: KM12 colon
LOX IMVI melanoma = system: LOX IMVI melanoma
MCF7 breast = system: MCF7 breast
NCI-H522 lung = system: NCI-H522 lung
OVCAR-4 ovarian = system: OVCAR-4 ovarian
TK-10 renal = system: TK-10 renal
UACC-62 melanoma = system: UACC-62 melanoma
UO-31 renal = system: UO-31 renal

SMILES | GI50 (HL-60(TB) leukemia) [µM] | TGI (HL-60(TB) leukemia) [µM] | GI50 (HOP-92 NSCLC) [µM] | TGI (HOP-92 NSCLC) [µM] | GI50 (KM12 colon) [µM] | TGI (KM12 colon) [µM] | GI50 (LOX IMVI melanoma) [µM] | TGI (LOX IMVI melanoma) [µM] | GI50 (MCF7 breast) [µM] | TGI (MCF7 breast) [µM] | GI50 (NCI-H522 lung) [µM] | TGI (NCI-H522 lung) [µM] | GI50 (OVCAR-4 ovarian) [µM] | TGI (OVCAR-4 ovarian) [µM] | GI50 (TK-10 renal) [µM] | TGI (TK-10 renal) [µM] | GI50 (UACC-62 melanoma) [µM] | TGI (UACC-62 melanoma) [µM] | GI50 (UO-31 renal) [µM] | TGI (UO-31 renal) [µM]
COc1ccc(C(=O)N2c3ccccc3Sc3ccccc32)c(F)c1 | 0.325 | > 100 | 0.238 | 59.7 | 0.489 | > 100 | 0.726 | > 100 | 0.405 | > 100 | 0.403 | > 100 | 2.01 | > 100 | 10.4 | > 100 | 0.382 | > 100 | 3.78 | > 100
CC1(C)O[C@H]2OC3CCC(=O)CC3(O)[C@H]2O1 (stereo not given in full) | – | > 100 | – | > 100 | – | > 100 | – | > 100 | – | > 100 | – | > 100 | – | > 100 | – | > 100 | – | > 100 | – | > 100
COc1ccc(Cl)cc1Nc1nc(C(F)(F)F)ccc1C(=O)NN | 2.75 | 18.6 | 2.56 | 40.1 | 9.08 | > 100 | 2.57 | > 65.4 | 18.7 | > 100 | 4.09 | > 100 | 3.21 | > 100 | 3.81 | > 100 | 4.87 | 53.5 | 3.97 | > 76.7
CSc1ccc(C2=Nn3c(nnc3-c3ccc(F)c(Cl)c3)SC2)cc1 | 5.39 | > 100 | 4 | 14.8 | 7.78 | 45.1 | 10.8 | 43.1 | 7.54 | 25.8 | 4.38 | 21.4 | 23.6 | 85.1 | 7.52 | 21.2 | 2.04 | 8.19 | 16.5 | 43.7
S=C(N/N=C/c1cc(Cl)cc(Cl)c1)NC12CC3CC(CC(C3)C1)C2 | > 100 | > 100 | 2.5 | 12 | > 100 | > 100 | 6.09 | > 100 | > 82.3 | > 100 | > 63.4 | > 100 | 2.12 | 6.07 | 4.44 | 19.1 | 10.2 | > 100 | 4.86 | > 100
Nc1cc(N)c2nc(-c3ccccc3)c(Oc3ccc(F)cc3)nc2c1 | 18.5 | 64.8 | 12.2 | 29.8 | 14.5 | 40.3 | 43.3 | > 100 | 20.3 | > 100 | 64.7 | > 100 | 8.32 | 35.2 | 20.4 | 46.3 | 15.8 | 33.2 | 29.6 | > 100
Cc1ccc(C(=O)Nc2ccc(CN3CCN(C)CC3)c(C(F)(F)F)c2)cc1C#Cc1cnc(N)c2ccc(F)cc12 | 0.198 | 1.35 | 0.18 | 0.944 | 0.186 | 0.778 | 0.216 | 0.557 | 0.441 | 0.861 | 0.214 | 0.723 | 0.329 | 2.32 | 0.416 | 2.72 | 0.329 | 1.02 | 0.121 | 0.748
C/C(=N\O)c1ccc(Nc2cc(-n3nnc4ccccc43)nc3ccccc23)cc1 | 10.6 | 45.7 | 14.4 | 46.5 | 2.98 | 10.9 | 3.44 | 13.5 | 5.24 | 14.4 | 6.39 | 22.8 | 13.9 | > 72.2 | 3.14 | 14.2 | 6.9 | 19 | 6.79 | 26.6
CC(C)(C)OC(=O)NCC(C#N)CNC(=O)OC(C)(C)C | – | > 100 | – | > 100 | – | > 100 | – | > 100 | – | > 100 | – | > 100 | – | > 100 | – | > 100 | – | > 100 | – | > 100
COc1cc(/C=C2\CN(C)CC3=C2Nc2nc(SC)[nH]c(=O)c2C3c2cc(OC)c(OC)c(OC)c2)cc(OC)c1OC (stereo not given) | 2.26 | 9.66 | 3.4 | 10.9 | 1.7 | 3.21 | 1.66 | 3.94 | 4.98 | 18.3 | 2.04 | 4.69 | 4.99 | 21.2 | 6.06 | 18.9 | 2.06 | 5.11 | 1.57 | 3.44
CS(=O)(=O)c1ccc(Cl)c([N+](=O)[O-])c1 | 19.7 | 47.6 | 18.3 | 35 | 14.8 | 29.6 | 10.1 | 23.4 | 10.9 | 33.7 | 16.5 | 33.5 | 2.02 | 3.9 | 18.9 | 34.4 | 15.1 | 28.6 | 1.97 | 4.04
Fc1cccc(COc2ccc(Nc3ncnc4sc(-c5ccco5)cc34)cc2Cl)c1 | > 25 | > 25 | > 25 | > 25 | > 25 | > 25 | > 25 | > 25 | > 25 | > 25 | > 25 | > 25 | > 25 | > 25 | > 25 | > 25 | > 25 | > 25 | > 25 | > 25
